Test results published in article PMC12018053 (Biochemistry and Biophysics Reports, 2025).
Values after ≈ are worked out from the molar mass of the structure shown.

What was measured:
Human sEH = target: T1, Human sEH (Homo sapiens, UniProt P34913); assay: sEH fluorescent-based inhibition assay; format: biochemical
T1 sequence (P34913 1-555): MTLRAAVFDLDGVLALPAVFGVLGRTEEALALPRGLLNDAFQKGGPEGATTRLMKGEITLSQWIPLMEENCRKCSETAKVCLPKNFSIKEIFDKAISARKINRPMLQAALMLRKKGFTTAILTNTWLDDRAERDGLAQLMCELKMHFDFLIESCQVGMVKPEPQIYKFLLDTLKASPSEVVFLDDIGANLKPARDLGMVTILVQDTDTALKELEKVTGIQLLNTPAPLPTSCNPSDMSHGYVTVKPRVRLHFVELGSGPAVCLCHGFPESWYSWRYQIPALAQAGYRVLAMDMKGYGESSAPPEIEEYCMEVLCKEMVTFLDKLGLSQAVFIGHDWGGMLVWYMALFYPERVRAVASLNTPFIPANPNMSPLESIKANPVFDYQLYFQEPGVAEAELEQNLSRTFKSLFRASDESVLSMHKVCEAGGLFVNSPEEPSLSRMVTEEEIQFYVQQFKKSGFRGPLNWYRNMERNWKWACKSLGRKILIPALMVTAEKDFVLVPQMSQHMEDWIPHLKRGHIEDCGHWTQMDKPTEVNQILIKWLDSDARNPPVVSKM

Mouse sEH = target: T2, Mouse sEH (Mus musculus, UniProt P34914); assay: sEH fluorescent-based inhibition assay; format: biochemical
T2 sequence (P34914 1-554): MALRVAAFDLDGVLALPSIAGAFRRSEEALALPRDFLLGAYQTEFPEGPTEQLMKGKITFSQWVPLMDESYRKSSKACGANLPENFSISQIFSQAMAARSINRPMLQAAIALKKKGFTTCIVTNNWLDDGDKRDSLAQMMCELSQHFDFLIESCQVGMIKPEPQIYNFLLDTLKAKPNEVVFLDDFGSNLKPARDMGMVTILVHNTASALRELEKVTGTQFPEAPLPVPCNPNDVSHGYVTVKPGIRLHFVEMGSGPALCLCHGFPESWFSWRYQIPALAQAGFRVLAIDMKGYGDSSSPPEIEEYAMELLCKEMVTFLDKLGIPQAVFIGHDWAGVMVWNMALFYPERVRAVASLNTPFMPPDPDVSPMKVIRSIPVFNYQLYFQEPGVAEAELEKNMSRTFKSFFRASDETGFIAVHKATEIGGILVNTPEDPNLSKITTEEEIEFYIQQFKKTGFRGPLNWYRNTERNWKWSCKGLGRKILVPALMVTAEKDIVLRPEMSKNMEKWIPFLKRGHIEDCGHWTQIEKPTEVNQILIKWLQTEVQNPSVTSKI

Rat sEH = target: T3, Rat sEH (Rattus norvegicus, UniProt P80299); assay: sEH fluorescent-based inhibition assay; format: biochemical
T3 sequence (P80299 1-554): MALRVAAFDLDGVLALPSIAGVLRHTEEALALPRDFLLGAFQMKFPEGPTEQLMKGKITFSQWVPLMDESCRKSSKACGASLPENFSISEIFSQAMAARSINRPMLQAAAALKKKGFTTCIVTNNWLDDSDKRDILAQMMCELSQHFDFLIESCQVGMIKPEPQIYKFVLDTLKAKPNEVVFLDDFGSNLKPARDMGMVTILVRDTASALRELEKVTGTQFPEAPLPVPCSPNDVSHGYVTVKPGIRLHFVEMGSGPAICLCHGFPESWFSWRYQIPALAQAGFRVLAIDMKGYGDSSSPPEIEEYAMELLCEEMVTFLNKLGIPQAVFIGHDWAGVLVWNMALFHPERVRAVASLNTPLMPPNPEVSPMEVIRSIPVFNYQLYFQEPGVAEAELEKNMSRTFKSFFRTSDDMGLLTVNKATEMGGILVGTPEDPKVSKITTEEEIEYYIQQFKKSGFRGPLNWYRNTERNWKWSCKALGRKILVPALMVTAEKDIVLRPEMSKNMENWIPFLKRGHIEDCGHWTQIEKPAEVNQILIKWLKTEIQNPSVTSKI

[1] = Microsomal stability assay in human liver microsomes; format: in vitro ADME; settings: pH 7.4
Delta opioid (DOR) = Delta opioid (DOR) (Homo sapiens, UniProt P41143); assay: NIMH PDSP primary binding screen, DOR; settings: read-out: Inhibition (%) Delta opioid (DOR)
Chain of Delta opioid (DOR) (P41143 whole entry): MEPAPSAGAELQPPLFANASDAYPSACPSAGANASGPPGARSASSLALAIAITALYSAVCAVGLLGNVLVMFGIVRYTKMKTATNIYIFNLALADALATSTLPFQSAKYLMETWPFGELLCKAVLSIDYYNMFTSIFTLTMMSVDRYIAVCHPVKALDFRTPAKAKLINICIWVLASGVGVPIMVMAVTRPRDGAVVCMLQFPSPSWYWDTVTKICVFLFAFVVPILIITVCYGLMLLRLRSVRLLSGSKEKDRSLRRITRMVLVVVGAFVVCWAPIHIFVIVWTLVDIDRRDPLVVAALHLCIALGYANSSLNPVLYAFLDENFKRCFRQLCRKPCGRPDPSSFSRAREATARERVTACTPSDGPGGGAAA

Kappa opioid (KOR) = Kappa opioid (KOR) (Homo sapiens, UniProt P41145); assay: NIMH PDSP primary binding screen, KOR; settings: read-out: Inhibition (%) Kappa opioid (KOR)
Chain of Kappa opioid (KOR) (P41145 whole entry): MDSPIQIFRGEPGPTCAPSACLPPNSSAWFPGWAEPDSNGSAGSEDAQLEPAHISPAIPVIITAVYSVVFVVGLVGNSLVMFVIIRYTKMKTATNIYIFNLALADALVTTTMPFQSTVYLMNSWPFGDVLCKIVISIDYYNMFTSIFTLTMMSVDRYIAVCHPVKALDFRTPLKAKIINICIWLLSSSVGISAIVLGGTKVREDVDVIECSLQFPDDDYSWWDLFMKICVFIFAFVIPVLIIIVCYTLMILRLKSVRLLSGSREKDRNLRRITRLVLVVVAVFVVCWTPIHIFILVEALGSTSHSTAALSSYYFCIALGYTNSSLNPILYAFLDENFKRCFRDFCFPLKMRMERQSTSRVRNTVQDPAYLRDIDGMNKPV

Mu opioid (MOR) = Mu opioid (MOR) (Homo sapiens, UniProt P35372); assay: NIMH PDSP primary binding screen, MOR; settings: read-out: Inhibition (%) Mu opioid (MOR)
Chain of Mu opioid (MOR) (P35372 whole entry): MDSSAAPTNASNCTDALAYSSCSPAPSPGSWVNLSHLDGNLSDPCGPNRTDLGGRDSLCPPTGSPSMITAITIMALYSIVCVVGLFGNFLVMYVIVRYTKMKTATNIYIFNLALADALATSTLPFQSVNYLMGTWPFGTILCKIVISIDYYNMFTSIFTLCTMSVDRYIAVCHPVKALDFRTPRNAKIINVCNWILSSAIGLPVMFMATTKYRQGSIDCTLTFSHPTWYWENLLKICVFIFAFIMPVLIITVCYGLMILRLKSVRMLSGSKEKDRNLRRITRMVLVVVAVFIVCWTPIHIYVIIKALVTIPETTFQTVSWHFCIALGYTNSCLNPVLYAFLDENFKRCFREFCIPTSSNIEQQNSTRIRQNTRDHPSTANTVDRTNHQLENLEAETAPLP

5-HT1D = 5-HT1D (Homo sapiens, UniProt P28221); assay: NIMH PDSP primary binding screen, 5-HT1D; settings: read-out: Inhibition (%) 5-HT1D
Chain of 5-HT1D (P28221 whole entry, species assumed): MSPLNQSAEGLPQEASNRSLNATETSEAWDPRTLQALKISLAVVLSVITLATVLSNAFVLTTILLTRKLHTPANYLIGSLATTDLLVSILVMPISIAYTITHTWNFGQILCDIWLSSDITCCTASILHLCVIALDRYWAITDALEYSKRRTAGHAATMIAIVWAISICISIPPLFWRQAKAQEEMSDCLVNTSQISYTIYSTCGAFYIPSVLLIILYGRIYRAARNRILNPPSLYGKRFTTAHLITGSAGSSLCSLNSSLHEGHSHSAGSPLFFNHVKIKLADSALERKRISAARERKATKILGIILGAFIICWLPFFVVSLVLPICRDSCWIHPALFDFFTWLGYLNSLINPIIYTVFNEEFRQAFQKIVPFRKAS

5-HT3 = target: T4, 5-HT3 (Homo sapiens, UniProt P46098); assay: NIMH PDSP primary binding screen, 5-HT3; settings: read-out: Inhibition (%) 5-HT3
T4 sequence (P46098 24-478): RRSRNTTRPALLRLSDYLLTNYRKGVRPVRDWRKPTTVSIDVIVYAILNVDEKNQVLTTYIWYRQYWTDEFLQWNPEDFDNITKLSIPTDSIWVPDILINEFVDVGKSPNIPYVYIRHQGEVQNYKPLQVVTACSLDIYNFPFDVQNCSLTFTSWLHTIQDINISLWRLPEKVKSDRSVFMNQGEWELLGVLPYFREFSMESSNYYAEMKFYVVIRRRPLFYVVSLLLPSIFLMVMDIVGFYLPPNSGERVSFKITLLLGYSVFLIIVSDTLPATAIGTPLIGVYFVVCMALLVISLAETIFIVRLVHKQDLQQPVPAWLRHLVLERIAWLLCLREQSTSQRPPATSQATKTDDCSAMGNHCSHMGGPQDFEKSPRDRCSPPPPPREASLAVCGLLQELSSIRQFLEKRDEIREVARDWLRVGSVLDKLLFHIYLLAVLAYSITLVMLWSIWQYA

[2] = system: female Sprague-Dawley rats; assay: Orofacial formalin test without nitroglycerin; format: in vivo, rat; settings: 3 mg/kg i.p. 30 min before formalin, no nitroglycerin pretreatment
physchem = settings: sodium phosphate buffer, 24 °C, pH 7.4, aqueous buffer, kinetic from dmso stock

IC50 (Human sEH): 2.2 nM
IC50 (Mouse sEH): 107 nM
IC50 (Rat sEH): 1 nM
half-life at 1 µM [1]: 58 min
microsomal CLint at 1 µM [1]: 23.7 µL/min/mg
inhibition at 10 µM (Delta opioid (DOR)): 3.1 ± 1.53%
inhibition at 10 µM (Kappa opioid (KOR)): -18.1 ± 2.56%
inhibition at 10 µM (Mu opioid (MOR)): 10.6 ± 4.75%
inhibition at 10 µM (5-HT1D): 40.9 ± 11.2%
inhibition at 10 µM (5-HT3): -0.28 ± 5.94%
solubility (physchem): 54.4 µM (≈ 27.5 µg/mL)
Structure (SMILES): O=C(Nc1ccc(-c2ccc3ccncc3c2)cc1)C1CCN(S(=O)(=O)c2ccccc2Cl)CC1 [Compound 4f, 1-((2-chlorophenyl)sulfonyl)-N-(4-(isoquinolin-7-yl)phenyl)piperidine-4-carboxamide]
Time spent rubbing the injected area vs vehicle [2]: no significant difference
